Laboratory results as given in publication PMC9679038, “Hemoglobin is an oxygen-dependent glutathione buffer adapting the intracellular reduced glutathione levels to oxygen availability” (Redox Biology, 2022).
pKd: −log10 of the molar value.

Biological target: T1, Hemoglobin (Hb; oxy-Hb, also deoxy-Hb) (Homo sapiens, UniProt P68871+P69905)
T1 construct: gene HBB
T1 sequence (P68871 2-147): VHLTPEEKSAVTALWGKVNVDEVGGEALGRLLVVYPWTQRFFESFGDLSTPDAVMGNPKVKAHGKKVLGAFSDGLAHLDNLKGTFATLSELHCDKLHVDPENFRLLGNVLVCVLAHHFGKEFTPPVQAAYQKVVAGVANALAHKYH
T1 sequence (P69905 2-142): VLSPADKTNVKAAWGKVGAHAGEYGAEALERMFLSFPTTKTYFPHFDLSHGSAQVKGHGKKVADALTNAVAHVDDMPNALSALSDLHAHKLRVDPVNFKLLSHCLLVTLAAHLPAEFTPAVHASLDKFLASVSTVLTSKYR

pKd: 5.70
Compound: N[C@@H](CCC(=O)N[C@@H](CS)C(=O)NCC(=O)O)C(=O)O [GSH, reduced glutathione]
